Reference: article PMC3091812 (Neuropeptides, 2011)

Assays:
HEK-293 cells [1] = assay: Caspase-3 activity assay, protection from 3-nitropropionate; assay type: cell-based, Human; conditions: 8 mM 3-NP, 12 hours, over control
HEK-293 cells [2] = assay: Caspase-3 activity assay, protection from staurosporine; assay type: cell-based, Human; conditions: 1 μM staurosporine, 12 hours, vs citrate buffer control

| Structure (SMILES) | increase of caspase-3 activity by toxin (HEK-293 cells [1]) | increase of caspase-3 activity by toxin (HEK-293 cells [2]) |
| --- | --- | --- |
| O=C(O)CC[N+](=O)[O-] [3-NP, 3-nitropropionate] | approximately 100% |  |
| CN[C@@H]1C[C@H]2O[C@@](C)([C@@H]1OC)n1c3ccccc3c3c4c(c5c6ccccc6n2c5c31)C(=O)NC4 [staurosporine] |  | approximately 80% |
